From publication PMC6009871, “Anion inhibition studies of a beta carbonic anhydrase from the malaria mosquito Anopheles gambiae” (Journal of Enzyme Inhibition and Medicinal Chemistry, 2018) come the findings set out here.

The structures appear in SMILES notation.

One test deals with T1, AgaCA (Anopheles gambiae, UniProt Q5TU56).
T1 construct: gene 1272966; full-length beta-CA, C-terminal thrombin site and His6 tag (tag removed by thrombin), baculovirus/Sf9
T1 sequence (Q5TU56 1-255): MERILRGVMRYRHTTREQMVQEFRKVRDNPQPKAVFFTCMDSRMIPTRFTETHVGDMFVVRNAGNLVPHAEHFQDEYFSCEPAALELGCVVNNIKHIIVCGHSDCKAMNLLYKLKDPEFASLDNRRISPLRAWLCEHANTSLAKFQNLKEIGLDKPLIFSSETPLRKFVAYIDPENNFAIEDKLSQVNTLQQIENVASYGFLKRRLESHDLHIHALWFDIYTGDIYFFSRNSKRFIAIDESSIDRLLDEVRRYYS
Nature of the test: biochemical.
Settings: not given
`O=P(O)(O)OP(=O)(O)O` [P2O7^4−]: the Ki was determined as 8.52 mM.

Consider `N#CS` [SCN^−], for which the Ki came out at 6.41 mM. On to `O=S(=O)(O)O` [SO4^2−], for which the Ki was determined as 9.03 mM.

Staying with this test, now noted: read-out: AgaCA^c.
On to `N#CO` [CNO^−], for which the Ki stood at 9.46 mM.

As for `S=C(S)S` [CS3^2−], the Ki was found to be 8.19 mM. On the same count and under the same terms, in the case of `Cl` [Cl^−] it was 8.74 mM.

With `CCN(CC)C(=S)S` [Et2NCS2^−], the Ki worked out at 0.65 mM.

On to `F` [F^−], for which the Ki turned out to be 9.42 mM.

With `NS(N)(=O)=O` [H2NSO2NH2], the Ki came to 0.054 mM.

With `S` [HS^−], the Ki was 25.1 mM. On to `O=NO` [NO2^−], for which the Ki stood at 4.55 mM. For `O=[N+]([O-])O` [NO3^−], the Ki came to 6.5 mM. As to `OB(O)c1ccccc1` [Ph-B(OH)2], the Ki amounted to 0.047 mM.

Take `N#C[SeH]` [SeCN^−]: the Ki turned out to be 8.68 mM. For the molecule `O=[Se](=O)(O)O` [SeO4^2−], the Ki amounted to 9.41 mM.

For `[O]=[Sn]([OH])[OH]` [SnO3^2−], the Ki was found to be 1.8 mM. Same read-out and setting: the value for `O=[Te](=O)(O)O` [TeO4^2−] was 4.96 mM; that for `[O]=[V]([OH])([OH])[O][V](=[O])([OH])[OH]` [V2O7^4−] was 7.98 mM.

The test is the same for the next values; noted with them: read-out: KI [mM]^e / hCA I^a.
With `NS(=O)(=O)O` [H2NSO3H], the Ki stood at 0.021 mM.
